Test results published in US11065266B2, “Method of treating melanoma using an inhibitor of an atypical protein kinase C” (UNIVERSITY OF SOUTH FLORIDA, priority 2016, dated 2021).

Key:
SK-MEL-2 cells = assay: Growth inhibition assay (cell counts over 72 h); assay type: cell-based, human; conditions: for inhibition at 0.05 µM / inhibition at 0.1 µM / inhibition at 0.2 µM / inhibition at 0.5 µM / inhibition at 1 µM: Homo sapiens; for inhibition at 0.05 µM: 50 nM; for inhibition at 0.1 µM: 100 nM; for inhibition at 0.2 µM: 200 nM; for inhibition at 0.5 µM: 500 nM
Description: For the growth inhibition assays, the PCS-200-013 cells or SK-MEL-2 cells were seeded at 40,000 cells/well into 6-well-plates and treated with the respective inhibitor. Cells in each well were counted after 24 h from the time of treating with the inhibitor at the desired concentration. Each inhibitor had triplicate plates which were counted at 24th, 48th and 72nd hours after initiating the inhibitor treatment. Inhibitors were added after 24 h of seeding point. The inhibitor concentrations were none (control), 50 nM, 100 nM, 200 nM, 500 nM and 1 μM. The cells were counted using a hemocytometer. The same procedure was followed for inhibitors ICA-1, ACPD, 3,4-diamino-2,7-naphthalenedisulfonic acid DNDA and 8-hydroxy-1, 3,6-naphthalenetrisulfonic acid (ζ-Stat).
Cell growth of malignant melanoma cells was reduced by applying PKC-ι and PKC-ζ inhibitors (FIGS. 3A-3D and 4A-4B). Both PKC-ι, and PKC-ζ heavily contributed to the migration of metastasized melanoma cells and migration can be suppressed using ICA-1 and ACPD. For example, Tables 1-2 provide a summary of the percentage inhibition of growth of SK-MEL-2 cells (Table 1 for ICA-1 and Table 2 for ACPD) as a function of time over 72 h period. Both ACPD and ICA-1 have 40% effectiveness on cell proliferation inhibition at the highest concentration used. Inhibition is increased upon increasing the concentration.

PKC-ζ = biological target: T1, PKC-ζ (Homo sapiens, UniProt Q05513); conditions: at 10 μM; cited from earlier work
T1 sequence (Q05513 1-592): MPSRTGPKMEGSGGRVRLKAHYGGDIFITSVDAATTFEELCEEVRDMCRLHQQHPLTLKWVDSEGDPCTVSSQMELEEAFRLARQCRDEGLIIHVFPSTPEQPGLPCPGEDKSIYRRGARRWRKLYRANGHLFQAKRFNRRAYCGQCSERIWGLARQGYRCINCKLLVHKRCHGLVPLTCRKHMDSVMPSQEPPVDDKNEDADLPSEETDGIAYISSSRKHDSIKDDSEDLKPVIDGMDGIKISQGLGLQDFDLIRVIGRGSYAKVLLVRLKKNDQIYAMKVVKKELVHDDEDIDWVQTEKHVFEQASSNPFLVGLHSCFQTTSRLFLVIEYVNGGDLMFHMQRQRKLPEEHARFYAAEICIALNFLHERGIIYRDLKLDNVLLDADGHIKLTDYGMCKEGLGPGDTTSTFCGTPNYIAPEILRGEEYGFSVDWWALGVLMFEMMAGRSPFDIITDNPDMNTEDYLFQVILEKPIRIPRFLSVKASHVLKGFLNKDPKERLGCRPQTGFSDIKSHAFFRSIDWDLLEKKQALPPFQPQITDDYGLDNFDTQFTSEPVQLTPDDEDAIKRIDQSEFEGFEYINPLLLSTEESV

MeWo cells = assay: Wound healing assay; assay type: cell-based, human; conditions: 2.5 μM, day 3 or 4, p≤0.01
Description: For the wound-healing assay, melanoma cells were seeded into 35 mm dishes in 6-well-plates. After the cells had reached 100% confluency, the wound-healing assay was performed with a sterile pipette tip (1-10 μL pipette tip) by making a scratch through the confluent monolayer. Subsequently, the cells were washed with DPBS and fresh medium (EMEM) was added to each well and the desired amount of inhibitor was added in order to achieve the final concentrations of 50 nM, 100 nM, 200 nM, 500 nM and 1 μM against the control. Cells were cultured for 48 h. In 24 hours intervals, pictures of wound closure were taken and the percentage of wound closure was calculated in three randomly chosen fields.
A wound healing assay was performed to investigate the effect of ACPD and DNDA on malignant melanoma cell migration in vitro. Wound healing assay is commonly used to investigate in vitro migration of cancer cells. For the wound-healing assay, melanoma cells were seeded into 35 mm dishes in 6-well-plates. […] The percentage of wound closure was calculated after 3 or 4 days.
In one set of experiments, cells were cultured for 48 h. In 24 hours intervals, pictures of wound closure were taken and the percentage of wound closure was calculated in three randomly chosen fields. […] The areas of the scratch (wound) were calculated and compared to determine the statistical significance (FIG. 8C).

[1] = test system: malignant melanoma cell lines (SK-MEL-2 and MeWo); assay: Western blot of ζ-Stat treated samples; assay type: cell-based, human
Description: The change of levels of phosphorylated PKC-ι, total PKC-ι (FIG. 18A) and change of levels of phosphorylated PKC-ζ, total PKC-ζ (FIG. 18B) are shown for the ζ-Stat treated (2.5 μM) samples of malignant melanoma cell lines (SK-MEL-2 and MeWo) after the end of 3rd day of treatments. β-actin was used as the internal loading control in each Western blot. Whole cell lysate of 40 μg was separated on 7.5% SDS-PAGE and the Western blots of above proteins were obtained. N=3 experiments were performed in each case.

CC(=O)C1=C(O)CCC1=O [ACPD, 2-acetyl-1,3-cyclopentanedione]
inhibition at 0.05 µM (SK-MEL-2 cells; SK-MEL-2, 24 h, Day 1): 1% | inhibition at 0.1 µM (SK-MEL-2 cells; SK-MEL-2, 24 h, Day 1): 11% | inhibition at 0.2 µM (SK-MEL-2 cells; SK-MEL-2, 24 h, Day 1): 19% | inhibition at 0.5 µM (SK-MEL-2 cells; SK-MEL-2, 24 h, Day 1): 26% | inhibition at 1 µM (SK-MEL-2 cells; SK-MEL-2, 24 h, Day 1): 36% | inhibition at 0.05 µM (SK-MEL-2 cells; SK-MEL-2, 48 h, Day 2): 4% | inhibition at 0.1 µM (SK-MEL-2 cells; SK-MEL-2, 48 h, Day 2): 10% | inhibition at 0.2 µM (SK-MEL-2 cells; SK-MEL-2, 48 h, Day 2): 23% | inhibition at 0.5 µM (SK-MEL-2 cells; SK-MEL-2, 48 h, Day 2): 30% | inhibition at 1 µM (SK-MEL-2 cells; SK-MEL-2, 48 h, Day 2): 35% | inhibition at 0.05 µM (SK-MEL-2 cells; SK-MEL-2, 72 h, Day 3): 5% | inhibition at 0.1 µM (SK-MEL-2 cells; SK-MEL-2, 72 h, Day 3): 9% | inhibition at 0.2 µM (SK-MEL-2 cells; SK-MEL-2, 72 h, Day 3): 20% | inhibition at 0.5 µM (SK-MEL-2 cells; SK-MEL-2, 72 h, Day 3): 26% | inhibition at 1 µM (SK-MEL-2 cells; SK-MEL-2, 72 h, Day 3): 37% | effectiveness on cell proliferation inhibition (SK-MEL-2 cells; at the highest concentration used): 40% | inhibition of PKC-ζ (PKC-ζ): about 60% | wound closure (MeWo cells): significantly reduce the wound closure

Nc1c(S(=O)(=O)O)cc2cc(S(=O)(=O)O)ccc2c1N [DNDA, 3,4-diamino-2,7-naphthalenedisulfonic acid]
wound closure (MeWo cells): significantly reduce the wound closure

O=S(=O)(O)c1cc(O)c2c(S(=O)(=O)O)cc(S(=O)(=O)O)cc2c1 [ζ-Stat, 8-hydroxy-1,3,6-naphthalenetrisulfonic acid]
apoptosis of malignant melanoma cells [1]: induces the apoptosis | phosphorylated PKC-ι level ([1]; 2.5 μM, end of 3rd day): did not change significantly | reduction of pPKC-ζ level ([1]; 2.5 μM, end of 3rd day): 37% | reduction of total PKC-ζ level ([1]; 2.5 μM, end of 3rd day): 42% | total PKC-ι protein level ([1]; 2.5 μM, end of 3rd day): did not change significantly
